Where a name gives a salt, the structure may show the parent alone. Non-standard residues stand in square brackets, D forms with d. Residues, ends and D or L forms follow the SMILES beside them. No end group written: not given here. pGlu = O=C1CC[C@@H](C(=O)O)N1
How the values were obtained:
[1] = system: T lymphocytes isolated from spleens of male CBA/J or NZB mice; assay: T lymphocyte proliferation, 3H-thymidine uptake; format: cell-based
Description: The activity of the compounds of Examples is determined according to the following procedure:
T lymphocytes are isolated from spleens of male CBA/J or NZB mice. Cell homogenates are prepared in Hank's balanced salt solution (HBSS). After removal of larger particles and repeated washing of the cells in HBSS they are suspended in minimum essential medium (MEM) and passed through a glass wool column to remove macrophages. The cells are then incubated on a nylon wool column at 37° C., 95% air, 5% CO2, for 45 minutes. The non-adherant T lymphocytes are then eluted from the column, counted, and adjusted to 20×10^6 cells/ml. 50 μl. of cells are cultured (37° C., 95% air, 5% Co2) with compound, for 48 hours before addition of 0.5 μCi. of 3H-thymidine for the last 16 hours of culture. The total volume of the culture system is 200 μl. The cells are then harvested on a multiple automatic sample harvester (Mash II), the glass fiber filter disks placed in 10 ml. of xylene base scintillation fluid, and counted for 1 minute in a liquid scintillation counter. Results are reported as CPM±SE. Levamisole is used as the standard. Comparisons are made between counts obtained with control cultures and cultures containing compound and a determination made as to whether the compounds are active at the dosage tested.

[2] = several biological models; Low et al.; cited from earlier work
[3] = 1.5 ng/culture, control (0 ng) 49,519 ± 4048
[4] = 6.0 ng/culture, control (0 ng) 49,519 ± 4048
[5] = 25.0 ng/culture, control (0 ng) 49,519 ± 4048
[6] = 100.0 ng/culture, control (0 ng) 49,519 ± 4048

Compound: CC(C)[C@H](NC(=O)[C@H](CCC(=O)O)NC(=O)[C@H](CCCCN)NC(=O)[C@@H](N)CCCCN)C(=O)O [H-- Lys--Lys--Glu Val--OH, L-Lysyl-L-lysyl-L-glutamyl-L-valine, diacetate salt] (H-KKEV-OH)
- 3H-Thymidine Uptake CPM + S.E. ([1]; 2.5 ng/culture, control (0 ng) 2,789 ± 148): 3,931 ± 140 CPM
- 3H-Thymidine Uptake CPM + S.E. ([1]; 10 ng/culture, control (0 ng) 2,789 ± 148): 3,745 ± 172 CPM
- 3H-Thymidine Uptake CPM + S.E. ([1]; 25 ng/culture, control (0 ng) 2,789 ± 148): 4,397 ± 346 CPM
- 3H-Thymidine Uptake CPM + S.E. ([1]; 100 ng/culture, control (0 ng) 2,789 ± 148): 4,235 ± 284 CPM

Compound: CC(=O)O.CC(=O)O.CC(=O)O.CC(C)[C@H](NC(=O)[C@H](CCC(=O)O)NC(=O)[C@H](CCCCN)NC(=O)[C@@H](N)CCCCN)C(N)=O [H--Lys--Lys--Glu--Val--NH2, L-lysyl-L-lysyl-L-glutamyl-L-valineamide, triacetate salt] (H-KKEV-NH2)
- 3H-Thymidine Uptake CPM + S.E. [1, 3]: 72,713 ± 3633 CPM
- 3H-Thymidine Uptake CPM + S.E. [1, 4]: 77,979 ± 3760 CPM
- 3H-Thymidine Uptake CPM + S.E. [1, 5]: 62,712 ± 6004 CPM
- 3H-Thymidine Uptake CPM + S.E. [1, 6]: 51,021 ± 5527 CPM

Compound: c1ccc([C@H]2CN3CCSC3=N2)cc1 [Levamisole, reference compound]
- 3H-Thymidine Uptake CPM + S.E. ([1]; 5 ng/culture, 48 h culture, 3H-thymidine last 16 h, control 49,519 ± 4048): 70,353 ± 1561 CPM

Compound: NCCCC[C@H](NC(=O)[C@H](CCCCN)NC(=O)[C@@H]1CCC(=O)N1)C(=O)N[C@@H](CCC(=O)O)C(N)=O [p-Glu--Lys--Lys--Glu--NH2, L-(5-oxoprolyl)-L-lysyl-L-lysyl-L-α-glutamine, diacetate salt] ([pGlu]KKE-NH2)
- 3H-Thymidine Uptake CPM + S.E. [1, 3]: 73,407 ± 3333 CPM
- 3H-Thymidine Uptake CPM + S.E. [1, 4]: 78,727 ± 7102 CPM
- 3H-Thymidine Uptake CPM + S.E. [1, 5]: 73,932 ± 6944 CPM
- 3H-Thymidine Uptake CPM + S.E. [1, 6]: 67,489 ± 5190 CPM

Compound: CC(C)[C@H](NC(=O)[C@H](CCC(=O)O)NC(=O)[C@H](CCCCN)NC(=O)[C@H](CCCCN)NC(=O)[C@@H]1CCC(=O)N1)C(N)=O [p-Glu--Lys--Lys--Glu--Val--NH2, L-(5-oxoprolyl)-L-lysyl-L-lysyl-L-α-glutamyl-L-valinamide, diacetate salt] ([pGlu]KKEV-NH2)
- 3H-Thymidine Uptake CPM + S.E. ([1]; 1.5 ng/culture, control (0 ng) 9,876 ± 951): 23,736 ± 3417 CPM
- 3H-Thymidine Uptake CPM + S.E. ([1]; 6.0 ng/culture, control (0 ng) 9,876 ± 951): 31,236 ± 2004 CPM
- 3H-Thymidine Uptake CPM + S.E. ([1]; 25.0 ng/culture, control (0 ng) 9,876 ± 951): 26,026 ± 3537 CPM
- 3H-Thymidine Uptake CPM + S.E. ([1]; 100.0 ng/culture, control (0 ng) 9,876 ± 951): 27,830 ± 1749 CPM

Compound: thymosin α1 (SDAAVDTSSEITTKDLKEKKEVVEEAEN; ends and bridges not checked; UniProt P06454 2-29, looked up)
- activity relative to the parent thymosin Fraction 5 [2]: 10-1,000 times

— US4361673A, “Polypeptide compositions” (American Home Products Corporation, priority 1981, dated 1982)
